Data set [1] can be described thus: log P by HPLC on reversed-phase column (C18), EEC Directive 79/831 Annex V.A8. The data set is classed as physicochemical. Conditions: 40° C., 0.1% aqueous formic acid and acetonitrile, linear gradient 10% to 90% acetonitrile. As to the method: In table 1, the log P values were determined in accordance with EEC Directive 79/831 Annex V.A8 by HPLC (High Performance Liquid Chromatography) on a reversed-phase column (C18), using the method described below:
Temperature: 40° C.; Mobile phases: 0.1% aqueous formic acid and acetonitrile; linear gradient from 10% acetonitrile to 90% acetonitrile.
Calibration was carried out using unbranched alkan-2-ones (comprising 3 to 16 carbon atoms) with known log P values (determination of the log P values by the retention times using linear interpolation between two successive alkanones). lambda-max-values were determined using UV-spectra from 200 nm to 400 nm and the peak values of the chromatographic signals.

The next data set has as its system Alternaria solani. The data set can be described thus: In vivo preventive test on Alternaria solani (tomato). The settings on record: 500 ppm of active ingredient, evaluated 7 days after inoculation. As to the method:
Solvent: 49 parts by weight of N,N-dimethylformamide Emulsifier: 1 part by weight of Alkylarylpolyglycolether To produce a suitable preparation of active compound, 1 part by weight of active compound is mixed with the stated amounts of solvent and emulsifier, and the concentrate is diluted with water to the desired concentration. To test for preventive activity, young plants are sprayed with the preparation of active compound at the stated rate of application. One day after this treatment, the plants are inoculated with an aqueous spore suspension of Alternaria solani. […] Then the plants are placed in an incubation cabinet at approximately 20° C. and a relative atmospheric humidity of 96%.

For another data set, the system named is Pyrenophora teres. The data set can be described thus: In vivo preventive test on Pyrenophora teres (barley), Example F. Conditions: 500 ppm of active ingredient, evaluated 7-9 days after inoculation. As to the method: Solvent: 49 parts by weight of N,N-dimethylformamide Emulsifier: 1 part by weight of alkylaryl polyglycol ether To produce a suitable preparation of active compound, 1 part by weight of active compound is mixed with the stated amounts of solvent and emulsifier, and the concentrate is diluted with water to the desired concentration. To test for preventive activity, young plants are sprayed with the preparation of active compound at the stated rate of application. One day after this treatment, the plants are inoculated with an aqueous spore suspension of Pyrenophora teres. […] Then the plants are placed in a greenhouse at a temperature of approximately 20° C. and a relative atmospheric humidity of approximately 80%.

Another data set relates to Aspergillus parasiticus. The data set is classed as cell-based. Conditions: 7 days at 20° C., OD620nm.
The subject of data set [2] is Aflatoxins production by Aspergillus parasiticus. In kind it is cell-based.

One may read the logP as the decadic logarithm of the partition coefficient of the neutral form, usually between octanol and water. A higher logP goes with a more lipophilic compound. Take `Cc1cc(C(=O)NC[Si](C)(C)c2cccc(Cl)c2)c(C)o1` [Example 23]: the logP in data set [1] came out at 3.92.
As for `Cc1cc(C(=O)N(C[Si](C)(C)c2cc(Cl)cc(Cl)c2)C2CC2)c(C)o1` [Example 50], the Efficacy in the data set on Alternaria solani worked out at 100%; with Pyrenophora teres, 95%. This molecule returned a logP in data set [1] of 5.51.
Turning to `Cn1nc(C(F)F)c(C(=O)N(C[Si](C)(C)Cc2cccc(Cl)c2)C2CC2)c1F` [Example 66], the “% Inhibition of fungal growth at 50 μM” value in the data set with Aspergillus parasiticus amounted to 100%. In addition, the “% Inhibition of Aflatoxin at 50 μM” value in data set [2] worked out at 100%. Besides, the Efficacy in the data set with Alternaria solani and in the data set on Pyrenophora teres was 100% in each case. The molecule also registered a logP in data set [1] of 4.44.
For the molecule “N-cyclohexyl-N-{[dimethyl(phenyl)silyl]methyl}-2-furamide [Example 5]”, the log partition coefficient (logP) in data set [1] worked out at 3.73.
Same read-out and setting: the same measure for `Cc1cc(C(=O)N(C[Si](C)(C)Cc2ccccc2)C2CC2)c(C)o1` [Example 56]: 4.67.
Take `Cn1nc(C(F)F)c(C(=O)N(C[Si](C)(C)Cc2ccccc2Cl)C2CC2)c1Cl` [Example 60]: the “% Inhibition of fungal growth at 50 μM” value with Aspergillus parasiticus worked out at 84%. Moreover, the “% Inhibition of Aflatoxin at 50 μM” value in data set [2] is 100%. The Efficacy in the data set with Alternaria solani and in the data set on Pyrenophora teres was 95% in each case. The logP in data set [1] stood at 4.56.
For `Cn1nc(C(F)F)c(C(=O)NC[Si](C)(C)c2cc(Cl)cc(Cl)c2)c1Cl` [Example 46], in the data set with Aspergillus parasiticus, the “% Inhibition of fungal growth at 50 μM” value came out at 84%. Besides, in data set [2], the “% Inhibition of Aflatoxin at 50 μM” value came out at 99%. For the same molecule, the Efficacy with Alternaria solani amounted to 95%; with Pyrenophora teres it was 100%. In data set [1], this molecule showed a logP of 4.27.
Broadly, the chromatographic logP is a lipophilicity value derived from retention on a column. A higher chromatographic logP goes with higher lipophilicity. As to `Cc1nn(C)c(F)c1C(=O)N(C[Si](C)(C)c1ccccc1)C1CC1` [Example 8, N-cyclopropyl-N-{[dimethyl(phenyl)silyl]methyl}-5-fluoro-1,3-dimethyl-1H-pyrazole-4-carboxamide], in data set [1], the chromatographic logP worked out at 3.19.
Turning to `Cn1nc(C(F)F)c(C(=O)N(C[Si](C)(C)Cc2ccccc2)C2CC2)c1Cl` [Example 54], the figures for the Efficacy in the data set on Alternaria solani and in the data set with Pyrenophora teres were 95% and 100%, respectively. This molecule also yielded a logP in data set [1] of 4.20.
In the case of `Cc1cc(C(=O)N(C[Si](C)(C)c2ccccc2Cl)C2CC2)c(C)o1` [Example 22], the Efficacy in the data set on Alternaria solani was found to be 95%; in the data set with Pyrenophora teres, 80%. The same molecule gave a logP in data set [1] of 4.74.
Turning to `Cn1nc(C(F)F)c(C(=O)N(C[Si](C)(C)Cc2cc(Cl)cc(Cl)c2)C2CC2)c1Cl` [Example 67], in the data set on Aspergillus parasiticus, the “% Inhibition of fungal growth at 50 μM” value is 86%. Besides, the “% Inhibition of Aflatoxin at 50 μM” value in data set [2] came out at 100%. The molecule also showed an Efficacy in the data set with Alternaria solani of 78%. The molecule also gave a logP in data set [1] of 5.14.
For `Cn1nc(C(F)F)c(C(=O)NC[Si](C)(C)c2ccccc2)c1F` [Example 1], the “% Inhibition of fungal growth at 50 μM” value in the data set with Aspergillus parasiticus was 93%. In addition, the “% Inhibition of Aflatoxin at 50 μM” value in data set [2] is listed as 100%. The Efficacy in the data set on Alternaria solani and in the data set on Pyrenophora teres was 100% in each case. In data set [1], this molecule displayed a logP of 3.13.
`Cc1cc(C(=O)NC[Si](C)(C)c2ccc(Cl)cc2Cl)c(C)o1` [Example 33] registered a logP in data set [1] of 4.46.
Turning to `Cc1nc(C(F)F)c(C(=O)N(C[Si](C)(C)c2ccc(Cl)cc2Cl)C2CC2)s1` [Example 43], the Efficacy with Alternaria solani and in the data set on Pyrenophora teres was 100% in each case. The same molecule had a logP in data set [1] of 5.00.
Take `Cn1cc(C(=O)N(C[Si](C)(C)Cc2cccc(Cl)c2)C2CC2)c(C(F)F)c1` [Example 64]: the logP in data set [1] is on record as 4.62.
Regarding `Cn1nc(C(F)F)c(C(=O)NC[Si](C)(C)c2ccc(Cl)cc2Cl)c1F` [Example 36], in the data set with Aspergillus parasiticus, the “% Inhibition of fungal growth at 50 μM” value is listed as 84%. Besides, in data set [2], the “% Inhibition of Aflatoxin at 50 μM” value was found to be 100%. Also, the Efficacy in the data set on Alternaria solani and in the data set with Pyrenophora teres was 100% throughout. Besides, the logP in data set [1] worked out at 4.06.
`Cn1nc(C(F)F)c(C(=O)NC[Si](C)(C)c2cc(Cl)cc(Cl)c2)c1F` [Example 47]: the “% Inhibition of fungal growth at 50 μM” value in the data set with Aspergillus parasiticus amounted to 100%. Moreover, the “% Inhibition of Aflatoxin at 50 μM” value in data set [2] was found to be 100%. The Efficacy with Alternaria solani is on record as 100%; in the data set on Pyrenophora teres it was 95%. The logP in data set [1] came out at 4.08.
Consider `Cn1cc(C(=O)N(C[Si](C)(C)Cc2ccccc2Cl)C2CC2)c(C(F)F)c1` [Example 59], for which the Efficacy in the data set on Pyrenophora teres was 70%. Further, the logP in data set [1] was found to be 4.56.
With `C[Si](C)(CN(C(=O)c1ccsc1I)C1CC1)c1ccc2ccccc2c1` [Example 78], in data set [1], the logP turned out to be 5.17.
In the case of `Cn1nc(C(F)F)c(C(=O)NC[Si](C)(C)c2cccc(Cl)c2)c1Cl` [Example 25], the “% Inhibition of fungal growth at 50 μM” value in the data set on Aspergillus parasiticus amounted to 84%. For the same molecule, in data set [2], the “% Inhibition of Aflatoxin at 50 μM” value is given as 99%. In addition, the Efficacy with Alternaria solani and in the data set on Pyrenophora teres was 100% each time. The molecule further displayed a logP in data set [1] of 3.71.
As for `Cn1nc(C(F)F)c(C(=O)N(C[Si](C)(C)Cc2ccc(Cl)cc2Cl)C2CC2)c1F` [Example 70], the “% Inhibition of fungal growth at 50 μM” value in the data set on Aspergillus parasiticus was determined as 100%. Further, the “% Inhibition of Aflatoxin at 50 μM” value in data set [2] amounted to 100%. In addition, the Efficacy with Alternaria solani and with Pyrenophora teres was 100% throughout. The molecule also had a logP in data set [1] of 5.03.
In the data set on Alternaria solani, `Cn1cc(C(=O)N(C[Si](C)(C)Cc2ccc(Cl)cc2Cl)C2CC2)c(C(F)F)c1` [Example 68] displayed an Efficacy of 70%. The molecule also gave a logP in data set [1] of 5.19.
Molecule `Cc1cc(C(=O)NC[Si](C)(C)c2ccccc2Cl)c(C)o1` [Example 13] gave a logP in data set [1] of 3.85.
`Cc1cc(C(=O)N(C[Si](C)(C)Cc2cccc(Cl)c2)C2CC2)c(C)o1` [Example 63]: the Efficacy with Alternaria solani is listed as 70%. This molecule showed a logP in data set [1] of 5.11.
Turning to `Cn1nc(C(F)F)c(C(=S)N(C[Si](C)(C)Cc2ccc(Cl)cc2Cl)C2CC2)c1F` [Example 71], the values for the Efficacy with Alternaria solani and in the data set on Pyrenophora teres were 95% and 100%, respectively. This molecule showed a logP in data set [1] of 5.57.
`Cn1nc(C(F)F)c(C(=S)N(C[Si](C)(C)Cc2ccccc2)C2CC2)c1F` [Example 57]: in the data set on Alternaria solani, the Efficacy came out at 95%. This molecule gave a logP in data set [1] of 4.67.
For the molecule `Cc1cc(C(=O)N(C[Si](C)(C)c2cccc(Cl)c2)C2CC2)c(C)o1` [Example 29], the results for the Efficacy with Alternaria solani and with Pyrenophora teres were 94% and 95%, respectively. Moreover, the logP in data set [1] was 4.78.
In the case of `Cn1nc(C(F)F)c(C(=S)NC[Si](C)(C)c2ccccc2Cl)c1F` [Example 16], the Efficacy with Alternaria solani amounted to 70%. The same molecule returned a logP in data set [1] of 4.11.
`Cc1cc(C(=O)NC[Si](C)(C)c2ccccc2)c(C)o1` [Example 3] gave a logP in data set [1] of 3.48.
`Cc1cc(C(=O)N(C[Si](C)(C)Cc2ccccc2Cl)C2CC2)c(C)o1` [Example 58] showed a logP in data set [1] of 5.08.
As to `Cn1nc(C(F)F)c(C(=O)NC[Si](C)(C)c2ccc(Cl)cc2Cl)c1Cl` [Example 35], the Efficacy in the data set with Alternaria solani is on record as 90%. This molecule also displayed a logP in data set [1] of 4.25.
Turning to `Cc1nc(C(F)F)c(C(=O)N(C[Si](C)(C)c2cc(Cl)cc(Cl)c2)C2CC2)s1` [Example 53], the Efficacy is reported as 80% in the data set with Alternaria solani and 95% in the data set with Pyrenophora teres. In data set [1], this molecule displayed a logP of 4.92.
In the case of `Cn1nc(C(F)F)c(C(=S)N(C[Si](C)(C)Cc2ccccc2Cl)C2CC2)c1F` [Example 62], the Efficacy was 80% in the data set on Alternaria solani and 100% with Pyrenophora teres. The logP in data set [1] turned out to be 5.00.
For the molecule `Cn1cc(C(=O)NC[Si](C)(C)c2ccc(Cl)cc2Cl)c(C(F)F)c1` [Example 34], in data set [1], the logP was found to be 4.06.
On the same count and under the same terms, as for `Cc1cc(C(=O)NC[Si](C)(C)c2cc(Cl)cc(Cl)c2)c(C)o1` [Example 44], the figure is 4.54.
In data set [1], `Cn1nc(C(F)F)c(C(=O)NC[Si](C)(C)c2ccccc2Cl)c1Cl` [Example 14] showed a logP of 3.69.
In data set [1], `Cn1cc(C(=O)NC[Si](C)(C)c2cccc(Cl)c2)c(C(F)F)c1` [Example 24] registered a logP of 3.58.
Turning to `Cc1cc(C(=O)N(C[Si](C)(C)Cc2ccc(Cl)cc2Cl)C2CC2)c(C)o1` [Example 73], the logP in data set [1] is on record as 5.78.
In data set [1], `Cn1nc(C(F)F)c(C(=S)NC[Si](C)(C)c2ccc(Cl)cc2Cl)c1F` [Example 37] displayed a logP of 4.74.
On the same count and under the same terms, as for `Cn1nc(C(F)F)c(C(=O)N(C[Si](C)(C)c2ccc3ccccc3c2)C2CC2)c1Cl` [Example 77], the figure is 4.51; as for `Cn1cc(C(=O)NC[Si](C)(C)c2cc(Cl)cc(Cl)c2)c(C(F)F)c1` [Example 45], 4.11.
For `Cn1nc(C(F)F)c(C(=O)N(C[Si](C)(C)Cc2cc(Cl)cc(Cl)c2)C2CC2)c1F` [Example 72], the “% Inhibition of fungal growth at 50 μM” value in the data set on Aspergillus parasiticus worked out at 100%. Besides, the “% Inhibition of Aflatoxin at 50 μM” value in data set [2] amounted to 100%. This molecule also returned an Efficacy with Alternaria solani of 89%. This molecule also returned a logP in data set [1] of 4.98.

Source of the values: US9556205B2, “Fungicide N-[(trisubstitutedsilyl)methyl]-carboxamide derivatives” (BAYER INTELLECTUAL PROPERTY GMBH, priority 2010, dated 2017).
